According to patent US11968990B2, “Creamer comprising vegetable lipids and allulose” (CJ CHEILJEDANG CORPORATION, priority 2016, dated 2024):

How the values were obtained:
[1] = Body weight of C57BL/6J mice fed creamer-containing high fat diet with allulose for 8 weeks; assay type: in vivo; conditions: for Body weight: HFD + creamer + 5 wt % allulose (PRA), mean ± SE, in g (unit assumed)
Text: (§1) 16 C57BL/6J mice (male, 4-week-old) were purchased from the Jackson Laboratory (USA) and used. The mice were allowed to adapt to the breeding environment with the lab-chow diet (Purina Co., USA) for 4 weeks. Then, the mice were divided, by using the randomized block design, into a negative control group (PR: 8 mice), in which allulose was not fed, and an experimental group (PRA: 8 mice), in which allulose was fed, and the mice were fed with diet for 8 weeks.
For the diet of the negative control group, AIN-76 diet and HFD were applied, in which creamer [“Prima”, Dongsuh Foods Corporation, Korea; raw materials: 30-38 wt % of hydrogenated vegetable lipid (hydrogenated coconut oil, hydrogenated palm oil), starch syrup (including maltose), sodium caseinate, potassium phosphate dibasic, calcium phosphate tribasic] was used as the vegetable lipid. For the diet of the experimental group, 5 wt % of sugar among the components of the diet of the negative control group were replaced with allulose (crystal allulose, 98 wt % or higher of allulose based on dry solid content, CJ Cheiljedang) and used (Table 1). All animal experiments were conducted with the approval of the Ethical Commission for Animal Experimentation, Kyungpook National University (Approval No.: KNU-2013-18).
Pair feeding was performed based on the experimental group so as to feed the same level of iso-energetic diet, and thereby the effect of calorie reduction by allulose was excluded. The diet was refrigerated at 4° C. during the breeding period. The mice were bred in individual cages under constant temperature (25±2° C.), constant humidity (50±5%), and dark-light cycles at 12 hour intervals.
Dietary intake was measured at constant time every day, and body weight was measured at constant time every week.

[2] = Fecal lipid excretion in C57BL/6J mice fed creamer-containing high fat diet with allulose for 8 weeks; assay type: in vivo
Text: as §1
For the diet of the negative control group, AIN-76 diet and HFD were applied, in which creamer [“Prima”, Dongsuh Foods Corporation, Korea; raw materials: 30-38 wt % of hydrogenated vegetable lipid (hydrogenated coconut oil, hydrogenated palm oil), starch syrup (including maltose), sodium caseinate, potassium phosphate dibasic, calcium phosphate tribasic] was used as the vegetable lipid. […]
Among them, 200 μL each were collected for the measurement of cholesterol and free fatty acids and dried again under nitrogen gas, and those for the measurement of neutral lipid and total cholesterol were dissolved in 500 μL of ethanol. […] At the time of quantification of total cholesterol and neutral lipid, 3 mM cholic acid (sodium salt) as an emulsifier and 0.5% Triton X-100 (for removal of turbidity that occurs at the time of color development) were mixed and used.
For the measurement of total cholesterol, 10 μL of the solution dissolved in ethanol (500 μL) and the emulsifier (690 μL) were mixed, and then 800 μL of a test solution (Asan Pharmaceutical kit) for measurement applying the enzyme method of Allain et al. (1974) was mixed. For quantification of both in forms of free cholesterol (FC) and cholesterol ester (CE), CE was converted to FC and fatty acid by cholesterol esterase. […] The obtained product and H2O2 as a substrate were reacted with peroxidase, phenol, and 4-amino-antipyrine to obtain a red coloring material, and then the absorbance was measured at 500 nm. The measured value was quantified by comparing with the cholesterol standard curve. […]

[3] = experimental group (PRA) compared to negative control group (PR)

O=C(CO)C(O)C(O)C(O)CO [allulose, Allulose (D-psicose)]
Body weight ([1]; 0 week of diet): 21.47 ± 0.50 | Body weight ([1]; 8th week of diet): 27.41 ± 0.48 | Inhibitory effect against weight gain ([1]; experimental group (PRA) vs negative control (PR), from 1st week of diet, 8 weeks): significantly inhibited | Excretion of lipid as feces ([2]; allulose ingested along with the vegetable lipid in creamer): promoted | Amount of free fatty acids in the feces vs negative control [2, 3]: significantly increased | Amount of triglycerides in the feces vs negative control [2, 3]: significantly increased
